Reference: US20110065796A1 (SHIRE LLC, priority 2009, published 2011)
Where a name gives a salt, the structure may show the parent alone. Read-outs that look alike come from different tables or passages of the source.

Legend:
human α-2A adrenoceptor = biological target: T1, human α-2A adrenoceptor (Homo sapiens, UniProt P08913); experiment: α-2A adrenoceptor binding assay ([3H] RX821002 competition, recombinant CHO cells); conditions: [3H] RX821002 (1 nM)
T1 construct: expressed in transfected cells; host or cells: CHO cells
T1 sequence (P08913 1-465): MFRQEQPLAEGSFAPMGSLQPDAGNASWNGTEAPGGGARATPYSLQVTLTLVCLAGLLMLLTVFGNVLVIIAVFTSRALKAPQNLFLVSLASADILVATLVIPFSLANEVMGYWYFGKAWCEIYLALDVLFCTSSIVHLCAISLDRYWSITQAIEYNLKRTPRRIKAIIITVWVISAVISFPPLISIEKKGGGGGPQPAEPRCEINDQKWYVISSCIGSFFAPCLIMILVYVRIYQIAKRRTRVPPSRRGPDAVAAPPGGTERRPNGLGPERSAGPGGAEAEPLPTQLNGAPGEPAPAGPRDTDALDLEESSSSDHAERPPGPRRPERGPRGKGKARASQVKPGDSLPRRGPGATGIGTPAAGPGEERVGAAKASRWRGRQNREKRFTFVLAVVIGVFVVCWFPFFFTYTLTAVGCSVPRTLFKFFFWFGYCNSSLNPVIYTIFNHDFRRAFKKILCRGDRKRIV
Procedure: The activation of this receptor is responsible for its intended therapeutic effect.
The binding assay methodology employed in this study followed that described by Langin et al. (Eur. J. Pharmacol. 167:95-104, 1989) and used human recombinant CHO cells expressing α-2 adrenoceptors. The competitive binding ligand was [3H] RX821002 (1 nM) which has a high affinity for the alpha-2A subtype.

[1] = Prodrug stability in freshly withdrawn porcine intestinal fluid; type: in vitro ADME; conditions: for Prodrug remaining at 3 h: porcine intestinal fluid pH 6.8, 37° C., in % (unit assumed)
Excerpt: Many of the peptidases in the intestinal lumen may not be present in the USP simulated intestinal fluid preparations previously described. […] The prodrugs evaluated were selected on the basis of adequate pharmacokinetics (see Example 8).

[2] = Comparative pharmacokinetic screening study in the monkey (relative Cmax of guanfacine); conditions: for prodrug levels in plasma (in words): oral gavage, monkey screening study
Procedure: Blood samples were taken on 4 sampling occasions at various times up to 6 hours after administration and submitted to analysis for the parent drug and prodrug using a qualified LC-MS-MS assay.

[3] = Prodrug stability in simulated gastric fluid; conditions: 37° C., pH 1.1, HPLC
Procedure: (§1) The remaining concentrations of the prodrugs were then assayed by H PLC.

[4] = Prodrug stability in simulated intestinal fluid; conditions: 37° C., pH 6.8, HPLC
Procedure: as §1

[5] = test system: gastrointestinal transit of a charcoal meal in the rat; experiment: Charcoal propulsion test (gut motility) in rat; type: in vivo; conditions: oral
Procedure: The effect of a drug on gut motility can be studied by means of the charcoal propulsion test.
The method used was based on that described by Takemori et al. (J. Pharmacol. Exp. Ther. 169:39, 1969). Test treatments were administered orally 60 minutes prior to an oral dose of a 10% suspension of charcoal in 2.5% gum Arabic (2 ml/kg). Twenty minutes after dosing with charcoal, the rats were sacrificed and the entire gastrointestinal tract was removed quickly and carefully. The distance that the charcoal meal had traveled toward the caecum was measured and expressed as a percentage of the total gut length.

[6] = Pharmacokinetics in rat hepatic portal and tail veins after oral administration; type: in vivo
Procedure: Rats were surgically prepared under isofluorane anaesthesia by attaching a silicon catheter to the portal vein then exteriorising it at the nape of the neck with a blood collection port attached.
At each sampling time serial point blood samples (approximately 0.2 mL) were taken simultaneously from the lateral tail vein cannula and the hepatic portal cannula. After collection of the final blood sample each animal was killed by cervical dislocation. Blood samples were collected at 15, 30 minutes and 1, 2, 4, 8 and 24 hours post dose.
Pharmacokinetic parameters in portal and systemic plasma were derived by non-compartmental analysis (linear/logarithmic trapezoidal) using WinNonlin (Version 4.1) software.

[7] = Comparative bioavailability study of guanfacine in monkeys given guanfacine or prodrug conjugates; type: in vivo, cynomolgus monkey; conditions: oral, monkey
Procedure: The characteristics of the test animals are set out in Table 13.
The following pharmacokinetic parameters derived from the plasma analytical data were determined using Win Nonlin;

[8] = Comparative bioavailability study in monkeys in the fasted or fed state; type: in vivo, cynomolgus monkey; conditions: for Cmax: male, cynomolgus monkey, plasma, po, 0.5 mg/kg, read-out: mean Cmax prodrug
Procedure: Five male cynomolgus monkeys were used. Food was withdrawn from animals in fasted groups from the evening of the day prior to dosing until approximately 4 hours after dosing.
The formulations were prepared on the day of dosing and administered orally as soon as practicable up to a maximum of 2 hours after formulation.
Blood samples (0.5 mL) were collected from all animals pre-dose and at 0.5, 1, 2, 3, 4, 6, 8 10, 12, 16 and 24 hours after dosing.
Following processing, the resultant plasma was frozen and analysed by a qualified method. Pharmacokinetic evaluation was performed using a validated pharmacokinetic software package.

[9] = cited from earlier work
[10] = Study 2, dose 0.1 mg/kg guanfacine free base equivalents
[11] = Study 2, dose 0.3 mg/kg guanfacine free base equivalents
[12] = Study 2, dose 0.5 mg/kg guanfacine free base equivalents
[13] = hepatic portal vein plasma, po, 1 mg/kg, read-out: Hepatic portal vein Prodrug AUC
[14] = hepatic portal vein plasma, po, 1 mg/kg, read-out: Hepatic portal vein Prodrug Cmax
[15] = tail vein (systemic) plasma, po, 1 mg/kg, read-out: Tail vein Prodrug AUC
[16] = tail vein (systemic) plasma, po, 1 mg/kg, read-out: Tail vein Prodrug Cmax
[17] = Study 1, dose 0.1 mg/kg guanfacine free base equivalents
[18] = Study 1, dose 0.3 mg/kg guanfacine free base equivalents
[19] = Study 1, dose 1 mg/kg guanfacine free base equivalents
[20] = Study 1, dose 3 mg/kg guanfacine free base equivalents
[21] = Study 1, dose 5 mg/kg guanfacine free base equivalents
[22] = Fasted, 0.5 mg/kg guanfacine equivalent dose, oral

SMILES	Ki (human α-2A adrenoceptor) [nM]	stability in porcine intestinal fluid (in words) [1]	Prodrug remaining at 3 h [1]	prodrug levels in plasma (in words) [2]	% prodrug remaining following incubation for 1 h in simulated gastric fluid pH 1.1 [3] [%]	% prodrug remaining following incubation for 2 h in simulated intestinal fluid pH 6.8 [4] [%]	% change in GI transit vs vehicle [5, 10] [%]	% change in GI transit vs vehicle [5, 11] [%]	AUC [6, 13] [ng·h/mL]	Cmax [6, 14] [ng/mL]	AUC [6, 15] [ng·h/mL]	Cmax [6, 16] [ng/mL]	% change in GI transit vs vehicle [5, 17]	% change in GI transit vs vehicle [5, 18] [%]	% change in GI transit vs vehicle [5, 19] [%]	% change in GI transit vs vehicle [5, 20] [%]	% change in GI transit vs vehicle [5, 21] [%]	also measured
CNCC(=O)N[C@@H](COC(=O)NC(=N)NC(=O)Cc1c(Cl)cccc1Cl)C(=O)O [Compound 61, Guanfacine ((S)-Serine-Sarcosine) Carbamate]	10000	intermediate stability	66.86 ± 2.10	detectable prodrug levels in plasma	92	96	−8	−25	51.8	43.4	5.09	7.07	–	–	–	–	–	% change in GI transit vs vehicle [5, 12]: −31%; comparative systemic exposure to guanfacine vs guanfacine at an equimolar dose (in words) ([6]; oral): similar
CC(C)[C@@H](N)C(=O)N[C@@H](CCC(=O)NC(=N)NC(=O)Cc1c(Cl)cccc1Cl)C(=O)O [Compound 5, Guanfacine ((S)-γ-Glutamate-(R)-Valine) Amide]	1600	–	91.2	–	86	89	–	–	61	41.5	4.6	3.5	−6%	−22	−48	−44	−42	% change in GI transit vs vehicle ([5]; Study 1, dose 1.7 mg/kg guanfacine free base equivalents): −50%; plasma guanfacine profile (in words) [7]: sustained guanfacine concentrations
CC(C)[C@H](N)C(=O)NCCC(=O)NC(=N)NC(=O)Cc1c(Cl)cccc1Cl [Compound 2, Guanfacine (β-Alanine-(S)-Valine) Amide]	1200	intermediate stability	77.8	detectable prodrug levels in plasma	75	89	–	–	19.2	46.4	2.67	4.2	+3%	−30	−42	−42	−42	mean Cmax prodrug [8, 22]: BLQ; Cmax [8]: 2.15 ng/mL
CNCC(=O)N[C@H](C(=O)O)[C@@H](C)OC(=O)NC(=N)NC(=O)Cc1c(Cl)cccc1Cl [Compound 63, Guanfacine ((R,S)-Threonine-Sarcosine) Carbamate]	–	high stability	95.04 ± 9.25	detectable prodrug levels in plasma	86	99	0	−13	66.5	23.7	20.2	9.37	–	–	–	–	–	% change in GI transit vs vehicle [5, 12]: −49%; comparative systemic exposure to guanfacine vs guanfacine at an equimolar dose (in words) ([6]; oral): similar
C[C@@H](N)C(=O)N[C@@H](CCC(=O)NC(=N)NC(=O)Cc1c(Cl)cccc1Cl)C(=O)O [Compound 41, Guanfacine ((S)-γ-Glutamate-(R)-Alanine) Amide]	1700	high stability	89.70 ± 3.60	detectable prodrug levels in plasma	70	83	–	–	43.5	31.9	8	6.14	–	–	–	–	–	–
CC(C)[C@H](NC(=O)CCCC(=O)NC(=N)NC(=O)Cc1c(Cl)cccc1Cl)C(=O)O [Compound 1, Guanfacine (Glutaryl-(S)-Valine) Amide]	7200	high stability	100.6	–	80	92	–	–	–	–	–	–	−9%	−6	−45	−50	−53	AUC ([6]; hepatic portal vein plasma, oral, 0.5 mg/kg (footnote *), read-out: Hepatic portal vein Prodrug AUC): 159 ng·h/mL; Cmax ([6]; hepatic portal vein plasma, oral, 0.5 mg/kg (footnote *), read-out: Hepatic portal vein Prodrug Cmax): 56.3 ng/mL; AUC ([6]; tail vein (systemic) plasma, oral, 0.5 mg/kg (footnote *), read-out: Tail vein Prodrug AUC): 29.6 ng·h/mL; Cmax ([6]; tail vein (systemic) plasma, oral, 0.5 mg/kg (footnote *), read-out: Tail vein Prodrug Cmax): 8.26 ng/mL; Cmax [8, 22]: 9.23 ng/mL; Cmax ([8]; Fed, 0.5 mg/kg guanfacine equivalent dose, oral): 7.19 ng/mL; plasma guanfacine profile (in words) [7]: sustained guanfacine concentrations
N=C(N)NC(=O)Cc1c(Cl)cccc1Cl [Guanfacine, N-Amidino-2-(2,6-dichlorophenyl)acetamide monohydrochloride, reference compound]	–	–	–	–	–	–	−41	−56	–	–	–	–	−52%	−55	−47	–	–	bioavailability of guanfacine in man [9]: > 80%; bioavailability ([2]; cynomolgus monkey, in vivo, po): 35%; % change in GI transit vs vehicle ([5]; Study 2, dose 0.03 mg/kg guanfacine free base equivalents): −13%; reduction in the distance traveled by the charcoal plug within 20 minutes, compared to control group ([5]; 0.1 mg base/kg): 41-52%
